# Legend:
# Assay in all cases: Paper disk method, enhancing action for activities of azole antifungal agents
# Format in all cases: cell-based
# [1] = system: Candida albicans ATCC 64548; conditions: 24 hours; for Inhibition activity (inhibition ring mm) C. albicans ATCC 64548 GYM / Transparency of the inhibition ring C. albicans ATCC 64548 GYM: miconazole 0.03 μg/ml; for Inhibition activity (inhibition ring mm) C. albicans ATCC 64548 GYF / Transparency of the inhibition ring C. albicans ATCC 64548 GYF: fluconazole 0.5 μg/ml
# Experimental: (§1) Test organisms used were Candida albicans ATCC 64548, fluconazole resistant Candida albicans ATCC 64550 and Aspergillus niger ATCC 6275. Candida spp. were cultured in Waksman broth (glucose 2.0%, peptone 0.5%, dry yeast 0.3%, meat extract 0.5%, NaCl 0.5% and CaCO3 0.3%, pH 7.0) at 27° C. for 40 hours, then 0.1% thereof was inoculated on GY agar medium (glucose 1.0%, yeast extract 0.5% and agar 0.8%, pH 6.0). Spore suspension 0.2% of Aspergillus niger ATCC 6275 was inoculated on GY agar medium.
# (§2) Azole antifungal agents used were miconazole (Sigma Inc., the U.S.) and fluconazole (ICN Pharmaceuticals, Inc., the U.S.), and were added at concentrations without affecting growth on each test organisms follows.
# Candida albicans ATCC 64548: miconazole 0.03 μg/ml or fluconazole 0.5 μg/ml.
# (§3) In the above medium, a medium added with miconazole to GY medium (control) is designated as GYM, and a medium added with fluconazole is designated as GYF. Activities were assessed by means of paper disk method (thickness: 8 mm, ADVANTEC MFS INC., Japan). Diameter of inhibition ring is expressed with mm unit after culturing Candida spp. for 24 hours and Aspergillus niger ATCC 6275 for 48 hours. Transparency of the inhibition ring is assessed with 5 degrees of A, B, C, D and E (transparence<A<B<C<D<E<opaque).
# [2] = system: fluconazole resistant Candida albicans ATCC 64550; conditions: 24 hours; for Inhibition activity (inhibition ring mm) C. albicans ATCC 64550 GYM / Transparency of the inhibition ring C. albicans ATCC 64550 GYM: miconazole 0.15 μg/ml; for Inhibition activity (inhibition ring mm) C. albicans ATCC 64550 GYF / Transparency of the inhibition ring C. albicans ATCC 64550 GYF: fluconazole 30 μg/ml
# Experimental: as §1, §2
# Candida albicans ATCC 64550: miconazole 0.15 μg/ml or fluconazole 30 μg/ml.
# as §3
# [3] = system: Aspergillus niger ATCC 6275; conditions: 48 hours; for Inhibition activity (inhibition ring mm) A. niger ATCC 6275 GY / Transparency of the inhibition ring A. niger ATCC 6275 GY: GY medium (control, no azole); for Inhibition activity (inhibition ring mm) A. niger ATCC 6275 GYF / Transparency of the inhibition ring A. niger ATCC 6275 GYF: fluconazole 10 μg/ml; for Inhibition activity (inhibition ring mm) A. niger ATCC 6275 GYM / Transparency of the inhibition ring A. niger ATCC 6275 GYM: miconazole 0.1 μg/ml
# Experimental: as §1, §2
# Aspergillus niger ATCC 6275: miconazole 0.1 μg/ml or fluconazole 10 μg/ml.
# as §3
Compound,Inhibition activity (inhibition ring mm) A. niger ATCC 6275 GY ([3]; 50 μg/8 mm disk),Transparency of the inhibition ring A. niger ATCC 6275 GY ([3]; 50 μg/8 mm disk),Inhibition activity (inhibition ring mm) A. niger ATCC 6275 GYF ([3]; 50 μg/8 mm disk),Transparency of the inhibition ring A. niger ATCC 6275 GYF ([3]; 50 μg/8 mm disk),Inhibition activity (inhibition ring mm) A. niger ATCC 6275 GYM ([3]; 50 μg/8 mm disk),Transparency of the inhibition ring A. niger ATCC 6275 GYM ([3]; 50 μg/8 mm disk),Inhibition activity (inhibition ring mm) C. albicans ATCC 64548 GYM ([1]; 10 μg/8 mm disk),Transparency of the inhibition ring C. albicans ATCC 64548 GYM ([1]; 10 μg/8 mm disk),Inhibition activity (inhibition ring mm) C. albicans ATCC 64548 GYM ([1]; 50 μg/8 mm disk),Transparency of the inhibition ring C. albicans ATCC 64548 GYM ([1]; 50 μg/8 mm disk),Inhibition activity (inhibition ring mm) C. albicans ATCC 64550 GYF ([2]; 50 μg/8 mm disk),Transparency of the inhibition ring C. albicans ATCC 64550 GYF ([2]; 50 μg/8 mm disk),Inhibition activity (inhibition ring mm) C. albicans ATCC 64550 GYM ([2]; 50 μg/8 mm disk),Transparency of the inhibition ring C. albicans ATCC 64550 GYM ([2]; 50 μg/8 mm disk),Inhibition activity (inhibition ring mm) A. niger ATCC 6275 GYF ([3]; 10 μg/8 mm disk),Transparency of the inhibition ring A. niger ATCC 6275 GYF ([3]; 10 μg/8 mm disk),Inhibition activity (inhibition ring mm) C. albicans ATCC 64548 GYF ([1]; 50 μg/8 mm disk),Transparency of the inhibition ring C. albicans ATCC 64548 GYF ([1]; 50 μg/8 mm disk),Inhibition activity (inhibition ring mm) C. albicans ATCC 64550 GYF ([2]; 10 μg/8 mm disk),Transparency of the inhibition ring C. albicans ATCC 64550 GYF ([2]; 10 μg/8 mm disk),further results
"CCC(OC(C)=O)C(C)(O)C1OC(=O)C(C)C(OC2CC(C)(OC)C(OC(C)=O)C(C)O2)C(C)C(OC2OC(C)CC(NC)C2O)C2(C)CC(C)=C(O2)C1C (centres unmarked) [Compound 756, 4″,13-Di-O-acetyl-de (3′-N-methyl)-8,9-Anhydro-pseudoerythromycin A 6,9-hemiketal]",10 mm,E (Growth of test organism was inhibited 35% or less.),14 mm,E (Growth of test organism was inhibited 35% or less.),14 mm,E (Growth of test organism was inhibited 35% or less.),,,,,,,,,,,,,,,Inhibition activity (inhibition ring mm) C. albicans ATCC 64548 GYM ([1]; 100 μg/8 mm disk): 15 mm; Transparency of the inhibition ring C. albicans ATCC 64548 GYM ([1]; 100 μg/8 mm disk): D (Growth of test organism was inhibited 35% or more and 55% or less.); Inhibition activity (inhibition ring mm) C. albicans ATCC 64550 GYM ([2]; 100 μg/8 mm disk): 10 mm; Transparency of the inhibition ring C. albicans ATCC 64550 GYM ([2]; 100 μg/8 mm disk): E (Growth of test organism was inhibited 35% or less.)
"CCC(OC(=O)c1ccccc1)C(C)(O)C1OC(=O)C(C)C(OC2CC(C)(OC)C(OC(=O)c3ccccc3)C(C)O2)C(C)C(OC2OC(C)CC(N(C)C)C2OC(=O)c2ccccc2)C2(C)CC(C)=C(O2)C1C (centres unmarked) [Compound 770, 2′,4″,13-Tri-O-benzoyl-8,9-Anhydro-pseudoerythromycin A 6,9-hemiketal]",11 mm,E (Growth of test organism was inhibited 35% or less.),18 mm,E (Growth of test organism was inhibited 35% or less.),12 mm,E (Growth of test organism was inhibited 35% or less.),11 mm,D (Growth of test organism was inhibited 35% or more and 55% or less.),14 mm,C (Growth of test organism was inhibited 55% or more and 75% or less.),13 mm,C (Growth of test organism was inhibited 55% or more and 75% or less.),13 mm,A (Growth of test organism was inhibited 95% or more.),11 mm,E (Growth of test organism was inhibited 35% or less.),,,,,Inhibition activity (inhibition ring mm) C. albicans ATCC 64548 GYF ([1]; 100 μg/8 mm disk): 11 mm; Transparency of the inhibition ring C. albicans ATCC 64548 GYF ([1]; 100 μg/8 mm disk): D (Growth of test organism was inhibited 35% or more and 55% or less.)
"CCC(=O)OC1C(C)OC(OC2C(C)C(=O)OC(C(C)(O)C(CC)OC(=O)CC)C(C)C3=C(C)CC(C)(O3)C(OC3OC(C)CC(N(C)C)C3OC(C)=O)C2C)CC1(C)OC (centres unmarked) [Compound 771, 2′-O-acetyl-4″,13-Di-O-propionyl-8,9-Anhydro-pseudoerythromycin A 6,9-hemiketal]",,,15 mm,E (Growth of test organism was inhibited 35% or less.),23 mm,E (Growth of test organism was inhibited 35% or less.),,,12 mm,D (Growth of test organism was inhibited 35% or more and 55% or less.),10 mm,E (Growth of test organism was inhibited 35% or less.),10 mm,A (Growth of test organism was inhibited 95% or more.),14 mm,E (Growth of test organism was inhibited 35% or less.),,,,,
"CCCCCC(=O)OC1C(C)OC(OC2C(C)C(=O)OC(C(C)(O)C(CC)OC(=O)CCCCC)C(C)C3=C(C)CC(C)(O3)C(OC3OC(C)CC(N(C)C)C3OC(C)=O)C2C)CC1(C)OC (centres unmarked) [Compound 772, 2′-O-acetyl-4″,13-Di-O-hexanoyl-8,9-Anhydro-pseudoerythromycin A 6,9-hemiketal]",12 mm,E (Growth of test organism was inhibited 35% or less.),10 mm,D (Growth of test organism was inhibited 35% or more and 55% or less.),13 mm,A (Growth of test organism was inhibited 95% or more.),14 mm,B (Growth of test organism was inhibited 75% of more and 95% or less.),12 mm,B (Growth of test organism was inhibited 75% of more and 95% or less.),14 mm,B (Growth of test organism was inhibited 75% of more and 95% or less.),12 mm,A (Growth of test organism was inhibited 95% or more.),10 mm,D (Growth of test organism was inhibited 35% or more and 55% or less.),10 mm,D (Growth of test organism was inhibited 35% or more and 55% or less.),11 mm,E (Growth of test organism was inhibited 35% or less.),Inhibition activity (inhibition ring mm) C. albicans ATCC 64548 GYF ([1]; 10 μg/8 mm disk): 9 mm; Transparency of the inhibition ring C. albicans ATCC 64548 GYF ([1]; 10 μg/8 mm disk): D (Growth of test organism was inhibited 35% or more and 55% or less.); Inhibition activity (inhibition ring mm) A. niger ATCC 6275 GYM ([3]; 10 μg/8 mm disk): 12 mm; Transparency of the inhibition ring A. niger ATCC 6275 GYM ([3]; 10 μg/8 mm disk): E (Growth of test organism was inhibited 35% or less.)
"CCC(OC(=O)c1ccccc1)C(C)(O)C1OC(=O)C(C)C(OC2CC(C)(OC)C(OC(=O)c3ccccc3)C(C)O2)C(C)C(OC2OC(C)CC(N(C)C)C2OC(C)=O)C2(C)CC(C)=C(O2)C1C (centres unmarked) [Compound 773, 2′-O-acetyl-4″,13-Di-O-benzoyl-8,9-Anhydro-pseudoerythromycin A 6,9-hemiketal]",,,15 mm,E (Growth of test organism was inhibited 35% or less.),15 mm,B (Growth of test organism was inhibited 75% of more and 95% or less.),13 mm,C (Growth of test organism was inhibited 55% or more and 75% or less.),16 mm,A (Growth of test organism was inhibited 95% or more.),15 mm,A (Growth of test organism was inhibited 95% or more.),14 mm,A (Growth of test organism was inhibited 95% or more.),10 mm,E (Growth of test organism was inhibited 35% or less.),12 mm,E (Growth of test organism was inhibited 35% or less.),11 mm,E (Growth of test organism was inhibited 35% or less.),Inhibition activity (inhibition ring mm) C. albicans ATCC 64550 GYM ([2]; 10 μg/8 mm disk): 10 mm; Transparency of the inhibition ring C. albicans ATCC 64550 GYM ([2]; 10 μg/8 mm disk): C (Growth of test organism was inhibited 55% or more and 75% or less.); Inhibition activity (inhibition ring mm) A. niger ATCC 6275 GYM ([3]; 10 μg/8 mm disk): 13 mm; Transparency of the inhibition ring A. niger ATCC 6275 GYM ([3]; 10 μg/8 mm disk): E (Growth of test organism was inhibited 35% or less.)

# Reference: patent US20050176655A1, “Novel macrolide derivatives havaing effect of potentiating antifungal activity” (priority 2002, published 2005)
